Assay results taken from patent publication US8574563B2 (Bristol-Myers Squibb Company, priority 2006, dated 2013).
Like-named read-outs stand apart in the source and are kept apart here.

Test system: HCV 1b-377-neo replicon cells
Experiment: HCV replicon assay, HCV 1b-377-neo replicon cells (1b FRET)
Type: cell-based, Hepatitis C virus genotype 1b
Details: HCV 1b-377-neo replicon cells, HCV 1b genotype, read-out: EC50 range against HCV 1b (Table 2, Range)
Experimental: An HCV Replion assay was utilized in the present disclosure, and was prepared, conducted and validated as described in commonly owned PCT/US2006/022197 and in O'Boyle et. al. Antimicrob Agents Chemother. 2005 April; 49(4):1346-53.
HCV 1b-377-neo replicon cells were used to test the currently described compound series as well as cells resistant to compound A due to a Y2065H mutation in NS5A (described in application PCT/US2006/022197). The compounds tested were determined to have more than 10-fold less inhibitory activity on cells resistant to compound A than wild-type cells indicating a related mechanism of action between the two compound series. Thus, the compounds of the present disclosure can be effective to inhibit the function of the HCV NS5A protein and are understood to be as effective in combinations as previously described in application PCT/US2006/022197 and commonly owned WO/04014852. Further, the compounds of the present disclosure can be effective against the HCV 1b genotype. It should also be understood that the compounds of the present disclosure can inhibit multiple genotypes of HCV. […] In one embodiment compounds of the present disclosure are active against the 1a, 1b, 2a, 2b, 3a, 4a, and 5a genotypes.

| SMILES | EC50 (Hepatitis C virus) [nM] | EC50 [nM] |
| --- | --- | --- |
| CN[C@@H](C)C(=O)N1CCC[C@H]1c1ncc(-c2ccc(-c3ccc(-c4cnc([C@@H]5CCCN5C(=O)[C@H](C)NC)[nH]4)cc3)cc2)[nH]1 [LS6, (2S,2′S)-1,1′-(4,4′-biphenyldiylbis(1H-imidazole-5,2-diyl(2S)-2,1-pyrrolidinediyl))bis(N-methyl-1-oxo-2-propanamine)] | 100 to 999 |  |
| COC(=O)N[C@@H](Cn1cccn1)C(=O)N1CCC[C@H]1c1ncc(-c2ccc(-c3ccc(-c4cnc([C@@H]5CCCN5C(=O)[C@@H](NC(=O)OC)[C@@H](C)OC)[nH]4)cc3)cc2)[nH]1 [cj-39, methyl ((1S)-2-((2S)-2-(5-(4′-(2-((2S)-1-(N-(methoxycarbonyl)-O-methyl-L-threonyl)-2-pyrrolidinyl)-1H-imidazol-5-yl)-4-biphenylyl)-1H-imidazol-2-yl)-1-pyrrolidinyl)-2-oxo-1-(1H-pyrazol-1-ylmethyl)ethyl)carbamate] | 0.001 to 0.999 |  |
| CN(C)[C@@H](C(=O)N1CCC[C@H]1c1ncc(-c2ccc(-c3ccc(-c4cnc([C@@H]5CCCN5C(=O)[C@@](C)(O)c5ccccc5F)[nH]4)cc3)cc2)[nH]1)c1ccccc1 [Example 94-1, (2S)-1-((2S)-2-(5-(4′-(2-((2S)-1-((2R)-2-(dimethylamino)-2-phenylacetyl)-2-pyrrolidinyl)-1H-imidazol-5-yl)-4-biphenylyl)-1H-imidazol-2-yl)-1-pyrrolidinyl)-2-(2-fluorophenyl)-1-oxo-2-propanol] | 0.001 to 0.999 |  |
| COC(=O)N[C@@H](C)C(=O)N1CCC[C@H]1c1ncc(-c2ccc(-c3ccc(-c4cnc([C@@H]5CCCN5C(=O)[C@H](C)NC(=O)OC)[nH]4)c(F)c3)cc2F)[nH]1 [Example D61, methyl ((1S)-2-((2S)-2-(5-(3,3,-difluoro-4′-(2-((2S)-1-(N-(methoxycarbonyl)-L-alanyl)-2-pyrrolidinyl)-1H-imidazol-5-yl)-4-biphenylyl)-1H-imidazol-2-yl)-1-pyrrolidinyl)-1-methyl-2-oxoethyl)carbamate] | 0.001 to 0.999 |  |
| O=C([C@@H](c1ccccc1)N1CCCCC1)N1CCC[C@H]1c1ncc(-c2ccc(-c3ncc(-c4cnc([C@@H]5CCCN5C(=O)[C@@H](c5ccccc5)N5CCCCC5)[nH]4)cn3)cc2)[nH]1 [Example 152j-5, 5-(2-((2S)-1-((2R)-2-phenyl-2-(1-piperidinyl)acetyl)-2-pyrrolidinyl)-1H-imidazol-5-yl)-2-(4-(2-((2S)-1-((2R)-2-phenyl-2-(1-piperidinyl)acetyl)-2-pyrrolidinyl)-1H-imidazol-4-yl)phenyl)pyrimidine] | 0.001 to 0.999 |  |
| COC(=O)N[C@@H](C(=O)N1CCC[C@H]1c1ncc(-c2ccc(-c3ccc(-c4cnc([C@@H]5CCCN5C(=O)[C@H](NC(=O)OC)c5ccccc5)[nH]4)cc3C)nc2)[nH]1)c1ccccc1 [Example 138] |  | 0.001 to 0.999 |
| O=C(Cc1ccccc1F)N1CCC[C@H]1c1ncc(-c2ccc(-c3ccc(-c4cnc([C@@H]5CCCN5C(=O)[C@@H](c5ccccc5)N5CCCCC5)[nH]4)cc3)cc2)[nH]1 [Example 107-28] | 0.001 to 0.999 |  |
| CCN(CC)[C@@H](C(=O)N1CCC[C@H]1c1ncc(-c2ccc(-c3ccc(-c4cnc([C@@H]5CCCN5C(=O)[C@H](Cc5ccc(OCc6ccccc6)cc5)NC(=O)OC)[nH]4)cc3)cc2)[nH]1)c1ccccc1 [cj-106, methyl ((1S)-1-(4-(benzyloxy)benzyl)-2-((2S)-2-(5-(4′-(2-((2S)-1-((2R)-2-(diethylamino)-2-phenylacetyl)-2-pyrrolidinyl)-1H-imidazol-5-yl)-4-biphenylyl)-1H-imidazol-2-yl)-1-pyrrolidinyl)-2-oxoethyl)carbamate] | 0.001 to 0.999 |  |
| COC(=O)N[C@@H](C(=O)N1CCC[C@H]1c1ncc(-c2ccc(-c3ccc(-c4cnc([C@@H]5CCCN5C(=O)[C@H]5CCCC[C@H]5NC(=O)OC)[nH]4)cc3)cc2)[nH]1)c1ccccc1 [cj-95, methyl ((1R)-2-((2S)-2-(5-(4′-(2-((2S)-1-(((1S,2R)-2-((methoxycarbonyl)amino)cyclohexyl)carbonyl)-2-pyrrolidinyl)-1H-imidazol-5-yl)-4-biphenylyl)-1H-imidazol-2-yl)-1-pyrrolidinyl)-2-oxo-1-phenylethyl)carbamate] | 0.001 to 0.999 |  |
| COC(=O)N[C@@H](C(=O)N1CCC[C@H]1c1ncc(-c2ccc(-c3ccc(-c4cnc([C@@H]5CCCN5C(=O)C[C@@H]5CCCN5C(=O)OC(C)(C)C)[nH]4)cc3)cc2)[nH]1)c1ccccc1 [Example 84-18, tert-butyl (2S)-2-(2-((2S)-2-(5-(4′-(2-((2S)-1-((2R)-2-((methoxycarbonyl)amino)-2-phenylacetyl)-2-pyrrolidinyl)-1H-imidazol-5-yl)-4-biphenylyl)-1H-imidazol-2-yl)-1-pyrrolidinyl)-2-oxoethyl)-1-pyrrolidinecarboxylate] | 1 to 99 |  |
| CCOC(=O)N[C@@H](C)C(=O)N1CCC[C@H]1c1ncc(-c2ccc(-c3ccc(-c4cnc([C@@H]5CCCN5C(=O)[C@H](C)NC(=O)OCC)[nH]4)cc3)cc2)[nH]1 [Example M5, ethyl ((1S)-2-((2S)-2-(5-(4′-(2-((2S)-1-(N-(ethoxycarbonyl)-L-alanyl)-2-pyrrolidinyl)-1H-imidazol-5-yl)-4-biphenylyl)-1H-imidazol-2-yl)-1-pyrrolidinyl)-1-methyl-2-oxoethyl)carbamate] | 1000 to 10000 |  |
| CCN(CC)[C@@H](C(=O)N1C[C@@H](F)C[C@H]1c1ncc(-c2ccc(-c3ccc(-c4cnc([C@@H]5C[C@H](F)CN5C(=O)[C@H](C)NC(=O)OC)[nH]4)cc3)cc2)[nH]1)c1ccccc1 [JG-14, methyl ((1S)-2-((2S,4S)-2-(5-(4′-(2-((2S,4S)-1-((2R)-2-(diethylamino)-2-phenylacetyl)-4-fluoro-2-pyrrolidinyl)-1H-imidazol-5-yl)-4-biphenylyl)-1H-imidazol-2-yl)-4-fluoro-1-pyrrolidinyl)-1-methyl-2-oxoethyl)carbamate] | 0.001 to 0.999 |  |
| COC(=O)N[C@@H](C(=O)N1CCC[C@@H]1c1ncc(-c2ccc(-c3ccc(-c4cnc([C@@H]5CC[C@H](c6ccccc6)N5C(=O)[C@H](NC(=O)OC)c5ccccc5)[nH]4)cc3)cc2)[nH]1)c1ccccc1 [Example F6, methyl ((1R)-2-((2R)-2-(5-(4′-(2-((2S,5R)-1-((2R)-2-((methoxycarbonyl)amino)-2-phenylacetyl)-5-phenyl-2-pyrrolidinyl)-1H-imidazol-5-yl)-4-biphenylyl)-1H-imidazol-2-yl)-1-pyrrolidinyl)-2-oxo-1-phenylethyl)carbamate] | 0.001 to 0.999 |  |
| COC(=O)N[C@@H](C(=O)N1CCC[C@H]1c1ncc(-c2ccc(-c3ccc(-c4cnc([C@@H]5CCCN5C(=O)Cc5ccccc5C)[nH]4)cc3)cc2)[nH]1)c1ccccc1 [Example 84-69, methyl ((1R)-2-((2S)-2-(5-(4′-(2-((2S)-1-((2-methylphenyl)acetyl)-2-pyrrolidinyl)-1H-imidazol-5-yl)-4-biphenylyl)-1H-imidazol-2-yl)-1-pyrrolidinyl)-2-oxo-1-phenylethyl)carbamate] | 0.001 to 0.999 |  |
| COC(=O)N[C@@H](C)C(=O)N1CC2(CC2)C[C@H]1c1nc(-c2ccc(-c3ccc(-c4c[nH]c([C@@H]5CC6(CC6)CN5C(=O)[C@H](C)NC(=O)OC)n4)cc3)cc2)c[nH]1 [Example M147, methyl ((1S)-2-((6S)-6-(4-(4′-(2-((6S)-5-(N-(methoxycarbonyl)-L-alanyl)-5-azaspiro[2.4]hept-6-yl)-1H-imidazol-4-yl)-4-biphenylyl)-1H-imidazol-2-yl)-5-azaspiro[2.4]hept-5-yl)-1-methyl-2-oxoethyl)carbamate] | 0.001 to 0.999 |  |
| O=C(OCc1ccccc1)c1nc([C@@H]2CCCN2C(=O)[C@@H](c2ccccc2)N2CCCCC2)[nH]c1-c1ccc(-c2ccc(-c3cnc([C@@H]4CCCN4C(=O)[C@@H](c4ccccc4)N4CCCCC4)[nH]3)cc2)cc1 [Example J23, benzyl 2-((2S)-1-((2R)-2-phenyl-2-(1-piperidinyl)acetyl)-2-pyrrolidinyl)-5-(4′-(2-((2S)-1-((2R)-2-phenyl-2-(1-piperidinyl)acetyl)-2-pyrrolidinyl)-1H-imidazol-5-yl)-4-biphenylyl)-1H-imidazole-4-carboxylate] | 0.001 to 0.999 |  |
| CN1CCC[C@H]1C(=O)N[C@@H](C(=O)N1CCC[C@H]1c1ncc(-c2ccc(-c3ccc(-c4c[nH]c([C@@H]5CCCN5C(=O)[C@H]5CCCO5)n4)cc3)cc2)[nH]1)c1ccccc1 [Example 120-6, 1-methyl-N-((1R)-2-oxo-1-phenyl-2-((2S)-2-(5-(4′-(2-((2S)-1-((2R)-tetrahydro-2-furanylcarbonyl)-2-pyrrolidinyl)-1H-imidazol-4-yl)-4-biphenylyl)-1H-imidazol-2-yl)-1-pyrrolidinyl)ethyl)-L-prolinamide] | 1 to 99 |  |
| COC(=O)N[C@H](C(=O)N1CCC[C@H]1c1ncc(-c2ccc(-c3ccc(-c4nc([C@@H]5CCCN5C(=O)[C@@H](NC(=O)OC)C(C)C)[nH]c4CC(OC)OC)cc3)cc2)[nH]1)C(C)C [Example J14a.1, methyl ((1S)-1-(((2S)-2-(4-(2,2-dimethoxyethyl)-5-(4′-(2-((2S)-1-((2S)-2-((methoxycarbonyl)amino)-3-methylbutanoyl)-2-pyrrolidinyl)-1H-imidazol-4-yl)-4-biphenylyl)-1H-imidazol-2-yl)-1-pyrrolidinyl)carbonyl)-2-methylpropyl)carbamate] | 0.001 to 0.999 |  |
